Test results reported in US8481572B2, “Pharmaceutical compositions and methods for the treatment of cancer” (Urifer Ltd., priority 2007, dated 2013).
Read-outs that look alike come from different tables or passages of the source.

Assays:
Assay type in all cases: cell-based
[1] = system: HCT116 human colorectal carcinoma cells; experiment: XTT test, number of viable cells, HCT116
Method: (§1) The effect of the four compounds 497, 631, 115 and 540 on the growth profile of cancer cells which express Fer was tested. The cells that were tested were: the colon cancer cell lines HT29 and HCT 116, the breast cancer cell lines MDA-MB-231 and MCF-7, and the prostate cancer cell lines PC3 and DU145. The effect of each of the four compounds on FS11 cells, a non malignant fibroblastic cell line, was also studied.
(§2) The cells were seeded in 96 wells microplates and were left to grow untreated overnight. Each of the […] compounds was dissolved in DMSO and was then added to each well in a dose dependent manner from 0.4 to 80 μM. The concentration of DMSO in each well was 0.4% v/v. Untreated cells and cells subjected to 0.4% DMSO alone, served as controls. The number of viable cells in each well was determined 48, 72, 96 hours after compounds addition, using the XTT test (Berridge, M. V. et al, 2005).
(§3) The effect of compound E626-0342 on the growth profile of cancer cells which express Fer was tested. The compound was added to the growth media of FS11-normal primary human fibroblasts and to two colon cancer cell lines, HCT116 and HT29, which express Fer.
(§4) Various cell lines were seeded in 96 wells microplates and were left to grow untreated overnight. Compound E626-0342, dissolved in DMSO at a stock concentration of 10 mM was then added to each well in a dose dependent manner, resulting in final concentrations extending from 0.5 to 15 μM. The final concentration of DMSO in each well was 1% v/v. Untreated cells and cells subjected to 1% DMSO alone, served as controls. The number of viable cells in each well was determined 96 hours after addition of the compound, using the XTT test (Berridge, M. V. et al, 2005).

[2] = system: FS11 human fibroblastic cells; experiment: XTT test, number of viable cells, FS11 non-malignant fibroblasts; conditions: for EC50: Homo sapiens, Fibroblast, XTT test, concentrations tested up to 80 μM
Method: as §1, §2, §3, §4

[3] = system: MCF-7 breast cancer cell line; experiment: XTT test, number of viable cells, MCF-7; conditions: Homo sapiens, MCF7, concentrations tested up to 80 μM
Method: as §1, §2

[4] = system: HT29 human colorectal carcinoma cells; experiment: XTT test, number of viable cells, HT29
Method: as §1, §2, §3, §4

[5] = system: MDA-MB-231 breast cancer cell line; experiment: XTT test, number of viable cells, MDA-MB-231; conditions: Homo sapiens, concentrations tested up to 80 μM
Method: as §1, §2

[6] = system: DU145 prostate cancer cell line; experiment: XTT test, number of viable cells, DU145; conditions: Homo sapiens, DU-145, concentrations tested up to 80 μM
Method: as §1, §2

[7] = system: PC3 prostate cancer cell line; experiment: XTT test, number of viable cells, PC3; conditions: concentrations tested up to 80 μM
Method: as §1, §2

murine Fer = molecular target: T1, murine Fer (Mus musculus, UniProt P70451); experiment: Fer tyrosine phosphorylation in yeast cells expressing ectopic Fer (western blot); conditions: 40 μM for 48 h
T1 construct: expressed in transfected cells; host or cells: S. cerevisiae yeast cells harboring plasmid pAES-Fer
T1 sequence (P70451 whole entry): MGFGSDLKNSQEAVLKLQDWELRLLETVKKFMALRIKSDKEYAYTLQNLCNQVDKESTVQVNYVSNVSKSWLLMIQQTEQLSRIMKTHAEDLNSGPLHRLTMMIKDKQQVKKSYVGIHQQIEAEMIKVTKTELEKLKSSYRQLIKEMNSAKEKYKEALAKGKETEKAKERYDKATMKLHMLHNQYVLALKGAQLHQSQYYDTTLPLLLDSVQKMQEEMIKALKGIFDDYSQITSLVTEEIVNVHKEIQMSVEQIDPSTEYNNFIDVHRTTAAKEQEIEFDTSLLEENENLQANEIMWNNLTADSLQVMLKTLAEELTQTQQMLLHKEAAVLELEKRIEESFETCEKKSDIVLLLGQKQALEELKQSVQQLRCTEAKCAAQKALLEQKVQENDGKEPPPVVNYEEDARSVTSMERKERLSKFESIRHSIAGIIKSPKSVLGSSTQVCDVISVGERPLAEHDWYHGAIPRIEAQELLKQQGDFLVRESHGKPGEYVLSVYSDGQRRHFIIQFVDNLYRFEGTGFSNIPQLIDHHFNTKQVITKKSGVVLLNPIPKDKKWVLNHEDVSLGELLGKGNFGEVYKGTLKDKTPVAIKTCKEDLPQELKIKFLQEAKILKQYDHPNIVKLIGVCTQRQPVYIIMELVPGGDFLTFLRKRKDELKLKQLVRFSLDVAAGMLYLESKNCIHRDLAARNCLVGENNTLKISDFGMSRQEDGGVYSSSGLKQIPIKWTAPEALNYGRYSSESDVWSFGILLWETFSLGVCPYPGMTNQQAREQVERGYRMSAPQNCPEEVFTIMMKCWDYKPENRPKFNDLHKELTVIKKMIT
Method: To examine whether the above listed compounds affect the enzymatic activity of Fer, the protein tyrosine phosphorylation profile in yeast cells which ectopically express the murine Fer, was analyzed using the yeast system disclosed in WO2007/107991. Since the S. cerevisae yeast cells lack almost completely detectable, endogenous, tyrosine phosphorylation activity, the detected tyrosine phosphorylation signals result essentially from the kinase activity of the ectopic Fer. Furthermore, considering the negligible tyrosine-phosphorylation background in the cells, it is possible to specifically track the tyrosine phosphorylation level of Fer in the treated yeast cells.
Yeast cells expressing an ectopic Fer were treated with 40 μM of one of the compounds 497, 631, 115 and 540 for 48 h. […] The expression levels of Fer and the tyrosine phosphorylation profiles of the proteins before and after treatment with the compounds were determined using a western-blot analysis. […]
To examine whether E626-0342 affects the enzymatic activity of Fer, the protein tyrosine phosphorylation profile in yeast cells which ectopically express the murine Fer, was analyzed. Since the S. cerevisae yeast cells lack almost completely detectable, endogenous, tyrosine phosphorylation activity, the detected tyrosine phosphorylation signals result essentially from the kinase activity of the ectopic Fer. […]

[8] = HCT-116, XTT test, concentrations tested up to 80 μM, read-out: EC50 on HCT116
[9] = HT-29, XTT test, concentrations tested up to 80 μM, read-out: EC50 on HT29

Compound | EC50 [1, 8] | EC50 [2] | EC50 [3] | EC50 [4, 9] | EC50 [5] | EC50 [6] | IC50 ([1]; HCT-116, after 96 h, read-out: IC50, reduction in number of viable cells, HCT116) | EC50 [7] | IC50 ([4]; HT-29, after 96 h, read-out: IC50, reduction in number of viable cells, HT29) | tyrosine phosphorylation level of the Fer protein band (Fer autophosphorylation) (murine Fer) | EC50 ([1]; HCT-116, 0.4% DMSO, 0.4 to 80 μM, read-out: EC50, decrease in cell viability, HCT116) | effect on FS11 cells ([2]; up to a concentration of 80 μM) | EC50 ([4]; HT-29, 0.4% DMSO, 0.4 to 80 μM, read-out: EC50, decrease in cell viability, HT29)
Cc1ccn2cc(-c3ccc(F)cc3)cc2c1 [Compound 115] | 32 µM | > 80 µM | 8 µM | 32 µM | 40 µM | – | – | – | – | – | – | – | –
Nc1cc(-c2ccc(Cl)cc2)nn1S(=O)(=O)c1c(F)c(F)c(F)c(F)c1F [Compound 497] | 2 µM | 4 µM | 8 µM | 2 µM | 2 µM | 8 µM | 2 µM | 4 µM | 2 µM | significant reduction | – | – | –
CC(C)c1nn2cc(-c3ccc(F)cc3)nc2s1 [Compound 631] | 24 µM | – | – | 30 µM | 32 µM | – | – | 32 µM | – | significant reduction | 24 µM | did not affect | 40 µM
